Test results as given in patent US12213479B2, “Monoterpenoid/phenylpropanoid-containing compounds and methods of their making and use as herbicides” (KITTRICH CORPORATION, priority 2016, dated 2025).

How the values were obtained:
Soybean plants = assay: Soil drench assay, soybean plants; format: in vivo; design: key to phytotoxicity (qualitative), soil drench: NOE: No Observable Effect; XXX: Dead; -: the lowest phytotoxic effect; --: phytotoxicity that did not result in death; ---: phytotoxicity that did not result in death; ------: the highest; conditions: for phytotoxicity (qualitative), soil drench: Soybean, 40 mL
Method: Soybean plants were planted under 1 cm of potting soil and watered every 2-3 days as necessary. Plants were grown in pots (6″ wide×4.5″ deep) with approximately 800 mL of soil for each plant. Seeds germinated approximately 3-5 days after being planted. Plants were grown in a greenhouse under a constant temperature and light environment (25±5° C., 12 hr: 12 hr light: dark cycle). Plants were grown until reaching 1-2 weeks old and 3-4 weeks old; these plants served as the “young” and “old” plants in this study, respectively.
Formulations of the various active ingredients were created using the monoterpenoid derivatives, potassium hydroxide, and Triton-X 100™ to aid in the solvation of the active ingredient. Formulations consisted of 0.5%-1% active ingredient by weight (0.5-1 g/100 ml water), with a 1:1 molar ratio of potassium hydroxide used to aid in the solvation (135-269 mg/100 mL for both thymyloxyacetic acid and carvacryloxyacetic acid). […] Formulations were applied to the soil next to the base of the stem of the plant to avoid foliar contact. Observations were performed 2 days and 3 weeks after soil drench to determine the effects of the treatments on the various types and stages of plants.

Corn plants = assay: Soil drench assay, corn plants; format: in vivo; design: key to phytotoxicity (qualitative), soil drench: NOE: No Observable Effect; XXX: Dead; -: the lowest phytotoxic effect; --: phytotoxicity that did not result in death; ---: phytotoxicity that did not result in death; ------: the highest; conditions: for phytotoxicity (qualitative), soil drench: Corn, 40 mL
Method: Corn plants were planted under ½″ of potting soil and watered every 2-3 days as necessary. Plants were grown in potting plants (6″ wide×4.5″ deep) with approximately 800 mL of soil for each plant. Seeds germinated approximately 4-7 days after being planted. Plants were grown in a greenhouse under a constant temperature and light environment (25±5° C., 12 hr: 12 hr light: dark cycle). Plants were grown until reaching 1-2 weeks old and 3-4 weeks old; these plants served as the “young” and “old” plants in this study, respectively. Formulations of the various active ingredients were created using the monoterpenoid derivatives, potassium hydroxide, and Triton-X 100™ to aid in the solvation of the active ingredient. […] Formulations were applied to the soil next to the base of the stem of the plant to avoid foliar contact. Observations were performed 2 days and 3 weeks after soil drench to determine the effects of the treatments on the various types and stages of plants.

soybeans = assay: Pre-emergence assay, soybean; format: in vivo; conditions: for pre-emergent effect on soybeans (words): 1%, 3-weeks after application; for qualitative growth assessment, pre-emergence: Soy, soil treated with 40 ml of 1% solution 1 day after planting, 3 weeks after application
Method: Soybean plants were planted under 1 cm of potting soil and watered every 2-3 days as necessary. Plants were grown in pots (6″ wide×4.5″ deep) with approximately 800 mL of soil for each plant. Plants germinated approximately 3-5 days after being planted. Plants were grown in a greenhouse under a constant temperature and light environment (25±5° C., 12 hr: 12 hr light: dark cycle).
(§1) 1-day after seeds/beans were planted, soil was drenched with 40 ml of formulation with 1% active ingredient. This was done to assess germination inhibition in the soil. […] Qualitative growth assessment was made by comparing the treated plants to the untreated controls.

Wood sorrel = assay: Pre-emergence assay, wood sorrel; format: in vivo; conditions: for pre-emergent effect on wood sorrel (words): 1%, 3-weeks after application; for qualitative growth assessment, pre-emergence: Sorrel, soil treated with 40 ml of 1% solution 1 day after planting, 3 weeks after application
Method: as §1

[1] = system: Dandelion (Taraxacum officinale); assay: Weed soil drench assay, dandelion; format: in vivo; conditions: for Percentage mortality: Dandelions, 40 mL of 5% solution, soil drench; for chlorosis and phytotoxicity: dandelions, 40 mL of 5%, 2 days after application
Method: Dandelion seeds were obtained from native prairie fields in Ames, IA. Individual seeds were sown for each pot (6″ wide×4.5″ deep) with approximately 800 mL of soil for each plant. Only plants that germinated were used for the study. Plants were treated 1-2 weeks post emergence. Plants were watered every 2-3 days as needed.
(§2) Formulations of the various active ingredients were created using the monoterpenoid derivatives, potassium hydroxide, and Triton-X 100™ to aid in the solvation of the active ingredient. Formulations included 5% active ingredient by weight (0.5-1 g/100 ml water), with a 1:1 molar ratio of potassium hydroxide used to aid in the solvation (135-269 mg/100 mL for both thymyloxyacetic acid and carvacryloxyacetic acid). […] Observations were performed 2 days and 3 weeks after soil drench to determine the effects of the treatments on the various types and stages of plants. Phytotoxicity is reported as percentage of total plants treated compared to a control treatment that was exposed to a similar formulation (without the active monoterpenoid derivatives).

[2] = system: Lamb's Quarters (Chenopodium album); assay: Weed soil drench assay, lamb's quarters; format: in vivo; conditions: for Percentage mortality: Lamb's quarters, 40 mL of 5% solution, soil drench; for chlorosis and phytotoxicity: lamb's quarters, 40 ml of 5%, two days after application
Method: Lamb's quarters seeds were obtained from the Department of Agronomy at Iowa State University. Individual seeds were sown for each pot (6″ wide×4.5″ deep) with approximately 800 mL of soil for each plant. Only plants that germinated were used for the study. Plants were treated 1-2 weeks post emergence. Plants were watered every 2-3 days as needed.
as §2

[3] = system: Giant Foxtail (Setaria faberi); assay: Weed soil drench assay, giant foxtail; format: in vivo; conditions: for Percentage mortality: Giant Foxtail, 40 mL of 5% solution, soil drench; for chlorosis and phytotoxicity: giant foxtail, 40 mL of 5%, 2 days after application
Method: Giant foxtail seeds were obtained from the Department of Agronomy at Iowa State University. Three seeds were sown for each pot (6″ wide×4.5″ deep) with approximately 800 mL of soil for each plant. Only plants that germinated were used for the study. Plants were treated 1-2 weeks post emergence. Plants were watered every 2-3 days as needed.
as §2

corn seeds = assay: Germination assay, corn seeds coated with compound; conditions: for corn seed germination at day 3: seed coating
[4] = 2-days after treatment, Old Plants, 0.50%
[5] = 2-days after treatment, Old Plants, 1%
[6] = 2-days after treatment, Young Plants, 0.50%
[7] = 2-days after treatment, Young Plants, 1%
[8] = 3-weeks after treatment, Old Plants, 0.50%
[9] = 3-weeks after treatment, Young Plants, 0.50%
[10] = 3-weeks after treatment, Young Plants, 1%
[11] = 3-weeks after treatment, Old Plants, 1%
[12] = young plants, 2 days after exposure, both concentrations
[13] = listed as Carvacryloxyacetic acid

Compound | phytotoxicity (qualitative), soil drench (Soybean plants; [4]) | phytotoxicity (qualitative), soil drench (Soybean plants; [5]) | phytotoxicity (qualitative), soil drench (Soybean plants; [6]) | phytotoxicity (qualitative), soil drench (Soybean plants; [8]) | phytotoxicity (qualitative), soil drench (Soybean plants; [9]) | phytotoxicity (qualitative), soil drench (Soybean plants; [10]) | effect on corn plants, soil drench (Corn plants; 3 weeks after exposure) | phytotoxicity (qualitative), soil drench (Corn plants; [4]) | phytotoxicity (qualitative), soil drench (Corn plants; [5]) | phytotoxicity (qualitative), soil drench (Corn plants; [6]) | phytotoxicity (qualitative), soil drench (Corn plants; [7]) | phytotoxicity (qualitative), soil drench (Corn plants; [8]) | phytotoxicity (qualitative), soil drench (Corn plants; [11]) | phytotoxicity (qualitative), soil drench (Corn plants; [9]) | phytotoxicity (qualitative), soil drench (Corn plants; [10]) | effect on corn plants, soil drench (Corn plants; [12]) | pre-emergent effect on soybeans (words) (soybeans) | qualitative growth assessment, pre-emergence (soybeans) | pre-emergent effect on wood sorrel (words) (Wood sorrel) | qualitative growth assessment, pre-emergence (Wood sorrel) | also measured
Cc1ccc(C(C)C)c(OCC(=O)O)c1 [thymyloxyacetic acid, 2-(2-isopropyl-5-methylphenoxy)acetic acid] | - | - | -- | - | XXX | XXX | caused phytotoxicity | -- | --- | - | - | XXX | XXX | XXX | XXX | did not show any significant effects | most susceptible | − − − | significantly inhibited | − | phytotoxicity (qualitative), soil drench (Soybean plants; [7]): ---; effect on soybean plants, soil drench (Soybean plants; old plant, 3 weeks after exposure, 0.5%): significant wilting and chlorosis; effect on soybean plants, soil drench (Soybean plants; old plants, 3 weeks after exposure, 1%): experienced mortality; mortality of soybean plants, soil drench (Soybean plants; young plants, 3 weeks after exposure): 100%; effect on soybean plants, soil drench (Soybean plants; young plants, 2 days after exposure, 0.5%): Minor inhibition; effect on soybean plants, soil drench (Soybean plants; young plants, 2 days after exposure, 1%): major inhibition; effect on corn plants, soil drench (Corn plants; older plants, 2 days after treatment, 0.5% and 1%): significant phytotoxic effects; pre-emergent effect on soybeans (words) (soybeans; listed as Thymyloxyacetic acid): major inhibition of growth; pre-emergent effect on wood sorrel (words) (Wood sorrel; listed as Thymyloxyacetic acid): major inhibition of growth; Percentage mortality ([1]; 2-days after treatment): 100%; Percentage mortality ([1]; 3-weeks after treatment): 100%; chlorosis and phytotoxicity [1]: significant chlorosis and phytotoxicity; Percentage mortality ([2]; 2-days after treatment): 100%; Percentage mortality ([2]; 3-weeks after treatment): 100%; chlorosis and phytotoxicity [2]: significant chlorosis and phytotoxicity; Percentage mortality ([3]; 2-days after treatment): 100%; Percentage mortality ([3]; 3-weeks after treatment): 100%; chlorosis and phytotoxicity [3]: significant chlorosis and phytotoxicity; inhibition of corn seed germination (corn seeds; seed coating 1% weight compound/weight seed, 3, 5, 7 days): second most significant inhibition; corn seed germination at day 3 (corn seeds): prevented any germination
Cc1ccc(C(C)C)cc1OCC(=O)O [carvacryloxyacetic acid, 2-(5-isopropyl-2-methylphenoxy)acetic acid] | -- | --- | --- | XXX | XXX | XXX | caused phytotoxicity | - | -- | - | - | XXX | XXX | XXX | -- | did not show any significant effects | completely prevented from growing | XXX (plant death) | completely prevented from growing | − − | effect on corn plants, soil drench (Corn plants; 3 weeks, 1%): did not cause mortality; effect on corn plants, soil drench (Corn plants; older plants, 2-days, 0.5%): did not cause any significant effects; pre-emergent effect on soybeans (words) (soybeans; [13]): prevented the emergence of soybean plants entirely; pre-emergent effect on wood sorrel (words) (Wood sorrel; [13]): significantly inhibited the growth; Percentage mortality ([1]; 2-days after treatment): 100%; Percentage mortality ([1]; 3-weeks after treatment): 100%; chlorosis and phytotoxicity [1]: significant chlorosis and phytotoxicity; Percentage mortality ([2]; 2-days after treatment): 100%; Percentage mortality ([2]; 3-weeks after treatment): 100%; chlorosis and phytotoxicity [2]: significant chlorosis and phytotoxicity; Percentage mortality ([3]; 2-days after treatment): 100%; Percentage mortality ([3]; 3-weeks after treatment): 100%; chlorosis and phytotoxicity [3]: significant chlorosis and phytotoxicity; corn seed germination at day 3 (corn seeds): some level of germination
